These results are taken from US20190309066A1, “COMBINATION THERAPY FOR THE TREATMENT OF SOLID AND HEMATOLOGICAL CANCERS” (Arch Oncology, Inc., priority 2017, published 2019).

Structures are written as SMILES. Several values for one entry are separate records, joined by “and”; a condition that tells them apart may be missing. Equal entries are not always repeated.

The subject of this test is RPMI-8226 tumors. In words: RPMI-8226 multiple myeloma xenograft in NSG mice. It counts as in vivo, mouse. An excerpt:
The purpose of this experiment was to evaluate the efficacy of anti-CD47 antibodies as a single agent and in combination with the proteasome inhibitor Bortezomib in the tumor growth inhibition in vivo in a xenograft mouse model of multiple myeloma. RPMI-8226 human multiple myeloma cells (ATCC #CCL-155, Manassas, Va.) were maintained in RPMI-1640 (Lonza; Walkersville, Md.) supplemented with 10% Fetal Bovine Serum (FBS; Omega Scientific; Tarzana, Calif.) and 1% Penicillin/Streptomycin (Corning, Manassas, Va.) within a 5% CO2 atmosphere. Cultures were expanded in tissue culture flasks.
Female NSG (NOD-Cg-Prkdc^scidI12rg^tm1Wjl/SzJ) were obtained from Jackson Laboratory (Bar Harbor, Me.) at 5-6 weeks of age. Mice were acclimated prior to handling and housed in microisolator cages (Lab Products, Seaford, Del.) under specific pathogen-free conditions. Mice were fed Teklad Global Diet® 2920× irradiated laboratory animal diet (Envigo, Formerly Harlan; Indianapolis, Ind.) and provided autoclaved water ad libitum. All procedures were carried out under the institutional guidelines of Translational Drug Development Institutional Animal Care and Use Committee (Protocol #18105). Animals were identified using transponders.
Female NSG mice were inoculated subcutaneously in the right flank with 0.1 mL of a 30% RPMI/70% Matrigel™ (BD Biosciences; Bedford, Mass.) mixture containing a suspension of 1×10^7 RPMI-8226 tumor cells. Fifteen days following inoculation, mice were randomized Test articles human IgG2 (hIgG2), an anti-CD47 antibody, and Bortezomib (LC Labs, Woburn, Mass.) were administered by intravenous (IV) injection. hIgG2 and anti-CD47 mAb were dosed on Days 0, 7, 14, 21, 28, and 35, while Bortezomib was dosed on Days 1, 4, and 12. as described below in Table 12.
Mean tumor growth inhibition (TGI) was calculated for Day 48 (the final day all mice were on study) utilizing the following formula.
The mean TS of each group was calculated and reported.
All statistical analyses in the xenograft study were performed with Prism GraphPad® software. Differences in Day 48 tumor volumes were confirmed using a one-way ANOVA, unpaired, parametric with the Tukey's Multiple Comparison test with Welch's correction. A two-tailed Student's t-test with Welch's correction was also used to verify any differences between each group and the vehicle control.
For statistical analysis purpose, any mouse sacrificed as an long term survivor (LTS) was assigned a death day of Day 99.

Take `CC(C)C[C@H](NC(=O)[C@H](Cc1ccccc1)NC(=O)c1cnccn1)B(O)O` [Bortezomib]: for the setting “Bortezomib 1 mg/kg”, the “Mean Day of Survival Days ± SEM” value came out at 76.8 ± 1.6 days and the “Median Day of Survival (Min-Max)” value is on record as 78 (70-84) Days. Where the note is “Bortezomib 1 mg/kg IV”, the “Day 48 Mean Tumor Volume (mm^3)” value amounted to 177 ± 20 mm^3. For the same compound, under “Bortezomib 1 mg/kg IV monotherapy”, the “tumor shrinkage (in words)” value is given as “no tumor shrinkage was recorded”. Also, where the note is “Bortezomib 1 mg/kg IV, vs hIgG2 control”, the “Day 48 % TGI” value was 96.2% and 96.2 (10) %. Further, where the note is “P value, Bortezomib 1 mg/kg”, the “Day 48 Outcome (ANOVA), tumor volume vs hIgG2 (Group 1)” value is given as “P < 0.05”; the “Day 48 Outcome (Student's t-test), tumor volume vs hIgG2 (Group 1)” value is given as “P < 0.05”; the “Survival Log-Rank Outcome vs hIgG2 (Group 1)” value is “P < 0.05”.
